Measurements taken from patent US4703055A, “Benzamides and therapeutic use thereof” (Societe d'Etudes Scientifiques et Industrielles de …, priority 1985, dated 1987).
Where a name gives a salt, the structure may show the parent alone. Read-outs that look alike come from different tables or passages of the source.

Experiments:
[1] = test system: stereotyped movements induced by apomorphine; test: Antagonism of stereotyped movements induced by apomorphine in rats (central antidopaminergic effect); format: in vivo
Experimental: Another pharmacological study was conducted to determine the central antidopaminergic effects of the compounds of the invention, by evaluating the power of their antagonistic effect in regard to the stereotyped movements induced by apomorphine in two different doses (1.25 mg/kg/IV and 0.5 mg/kg/SC) in rats. The tests were conducted according to conventional procedures.

Solubility of crystals = format: physicochemical
[2] = in vivo, sc
in vivo [3] = details: mouse, male mice, intravenous, as base, read-out: LD50 in mg/kg (base) intravenously
Experimental: The compounds according to the invention were the subject of a toxicological study to determine the lethal doses (LD50) in male mice, the compounds being administered intravenously. Metoclopramide was employed as a standard. The compounds of […] were tested.
Table (I) sets out the values with respect to said (LD50) tests.

in vivo [4] = details: sc
[5] = Rattus norvegicus, ip, I.P., at 64 mg/kg, read-out: inhibitor effect on stereotypies in regard to apomorphine, Intraperitoneal (I.P)
[6] = Rattus norvegicus, ip, I.P., read-out: inhibitor effect on stereotypies in regard to apomorphine, Intraperitoneal (I.P)
[7] = I.P., at 64 mg/kg, result in words

| SMILES | Stereotypies in regard to apomorphine, Subcutaneous (S.C.) ([1]; S.C., at 200 mg/kg) | Cataleptic Activity (Subcutaneous) ([2]; 200 mg/kg) | LD50 (in vivo [3]) [mg/kg] | inhibition in vivo at 64 mg/kg [1, 5] [%] | further results |
| --- | --- | --- | --- | --- | --- |
| CCN1CCN=C1CNC(=O)c1cc(Cl)c(N)cc1OC [Example 1, N-[(1-ETHYL 2-IMIDAZOLIN-2-YL)METHYL] 2-METHOXY 4-AMINO 5-CHLOROBENZAMIDE] | inactive | inactive | 27.1 to 27.2 | – | Stereotypies in regard to apomorphine, Intraperitoneal (I.P) ([1]; I.P., at 50 mg/kg): inactive; solubility in chloroform (Solubility of crystals; chloroform): highly soluble; solubility in dilute acetic acid (Solubility of crystals; dilute acetic acid): soluble |
| C=CCN1CCN=C1CNC(=O)c1cc(Cl)c(N)cc1OC [Example 2, N-[(1-ALLYL 2-IMIDAZOLIN-2-YL)METHYL] 2-METHOXY 4-AMINO 5-CHLOROBENZAMIDE] | – | inactive | 31.8 | – | – |
| COc1cc(N)c(Cl)cc1C(=O)NCC1=NCCN1Cc1ccccc1 [Example 3, N-[(1-benzyl 2-imidazolin-2-yl)methyl] 2-methoxy 4-amino 5-chlorobenzamide Hydrochloride] | inactive | inactive | 47.8 to 48.5 | 19 | – |
| COc1cc(N)c(Cl)cc1C(=O)NCC1=NCCN1CC1CC1 [Example 4, N-[(1-CYCLOPROPYLMETHYL 2-IMIDAZOLIN-2-YL)METHYL] 2-METHOXY 4-AMINO 5-CHLOROBENZAMIDE] | – | inactive | – | – | inhibition in vivo at 32 mg/kg [1, 6]: 26%; Stereotypies in regard to apomorphine, Subcutaneous (S.C.) ([1]; S.C., at 100 mg/kg): inactive |
| C=CCOc1cc(N)c(Cl)cc1C(=O)NCC1=NCCN1CC [Example 5, N-[(1-ETHYL 2-IMIDAZOLIN-2-YL)METHYL] 2-ALLYLOXY 4-AMINO 5-CHLOROBENZAMIDE] | inactive | inactive | 25.5 to 26.1 | – | inhibition in vivo at 32 mg/kg [1, 6]: 8% |
| CCN1CCN=C1CNC(=O)c1cc(Br)c(N)cc1OC [Example 6, N-[(1-ETHYL 2-IMIDAZOLIN-2-YL)METHYL] 2-METHOXY 4-AMINO 5-BROMOBENZAMIDE] | inactive | – | – | – | inhibition in vivo at 32 mg/kg [1, 6]: 20%; Cataleptic Activity (Subcutaneous) ([2]; 100 mg/kg): inactive |
| CCN1CCN=C1CN(C)C(=O)c1cc(Cl)c(N)cc1OC [Example 7, N-METHYL N-[(1-ETHYL 2-IMIDAZOLIN-2-YL)METHYL] 2-METHOXY 4-AMINO 5-CHLOROBENZAMIDE METHANE SULPHONATE] | inactive | inactive | 23.4 to 24.4 | – | Stereotypies in regard to apomorphine, Intraperitoneal (I.P) [1, 7]: inactive |
| COc1cc(N)c(Cl)cc1C(=O)NCC1=NCCN1C [Example 8, N-[(1-METHYL 2-IMIDAZOLIN-2-YL)METHYL]2-METHOXY 4-AMINO 5-CHLOROBENZAMIDE HYDROCHLORIDE] | inactive | inactive | – | 8 | – |
| CCN1CC(C)N=C1CNC(=O)c1cc(Cl)c(N)cc1OC (stereo not drawn) [Example 9, N-[(1-ETHYL 4-METHYL 2-IMIDAZOLIN-2-YL)METHYL] 2-METHOXY 4-AMINO 5-CHLOROBENZAMIDE] | – | inactive | – | 5 | Stereotypies in regard to apomorphine, Subcutaneous (S.C.) ([1]; S.C., at 100 mg/kg): inactive |
| COc1cc(N)c(Cl)cc1C(=O)NCC1=NCCN1 [Example 10, N-[(2-IMIDAZOLIN-2-YL)METHYL] 2-METHOXY 4-AMINO 5-CHLOROBENZAMIDE NITRATE] | – | inactive | 38.4 to 41.9 | 4 | Stereotypies in regard to apomorphine, Subcutaneous (S.C.) ([1]; S.C., at 100 mg/kg): inactive |
| CCN1CC(C)(C)N=C1CNC(=O)c1cc(Cl)c(N)cc1OC [Example 11, N-[(1-ETHYL 4-DIMETHYL 2-IMIDAZOLIN-2-YL)METHYL]2-METHOXY 4-AMINO 5-CHLOROBENZAMIDE] | inactive | inactive | 30.4 | – | Stereotypies in regard to apomorphine, Intraperitoneal (I.P) [1, 7]: inactive |
| CCN1CCN=C1CNC(=O)c1cc(Cl)c(N)cc1O [Example 12, N-[(1-ETHYL 2-IMIDAZOLIN-2-YL)METHYL]2-HYDROXY 4-AMINO 5-CHLOROBENZAMIDE HYDROCHLORIDE] | inactive | inactive | 59.3 | – | inhibition in vivo at 54 mg/kg ([1]; Rattus norvegicus, ip, I.P., at 54 mg/kg, read-out: inhibitor effect on stereotypies in regard to apomorphine, Intraperitoneal (I.P)): 2% |
| COc1cc(N)c(Cl)cc1C(=O)NCC1=NCCN1CC1=CCCCC1 [Example 13, N-[1-CYCLOHEXEN-1-YL-METHYL)2-(IMIDAZOLIN-2-YL)METHYL]2-METHOXY 4-AMINO 5-CHLOROBENZAMIDE] | inactive | inactive | 61.6 | 18 | – |
| CCN1CCN=C1C(C)NC(=O)c1cc(Cl)c(N)cc1OC (stereo not drawn) [Example 14, N-[1-(ethyl 2-imidazolin-2-yl)ethyl]2-methoxy 4-amino 5-chlorobenzamide] | – | – | 14.6 | – | Stereotypies in regard to apomorphine, Intraperitoneal (I.P) ([1]; I.P., at 40 mg/kg): inactive; Stereotypies in regard to apomorphine, Subcutaneous (S.C.) ([1]; S.C., at 80 mg/kg): inactive; Cataleptic Activity (Subcutaneous) ([2]; 80 mg/kg): inactive |
| CCN(CC)CCNC(=O)c1cc(Cl)c(N)cc1OC [METOCLOPRAMIDE, Metoclopramide, reference compound] | – | – | 37.9 | – | TD50 (in vivo [4]): 30 to 38 mg/kg; ED50 ([1]; Rattus norvegicus, ip, I.P., read-out: ID50, stereotypies in regard to apomorphine, Intraperitoneal (I.P)): 2 to 2.6 mg/kg; ED50 ([1]; Rattus norvegicus, sc, S.C., read-out: ID50, stereotypies in regard to apomorphine, Subcutaneous (S.C.)): 15 to 15.2 mg/kg; antagonism of apomorphine stereotypies (in words) ([1]; same conditions): marked stereotypy inhibitor capacity |
